ChEMBL document CHEMBL3991601, “The target landscape of clinical kinase drugs” (Science, 2017)
Activity calls are given as the source filed them. Rule as the data show it, for most assays here: actives have a measured Kd and inactives only a lower limit.

Columns and labels:
[1] = biological target: Casein kinase I isoform alpha (Homo sapiens, UniProt P48729)
[2] = biological target: Mitogen-activated protein kinase 3 (Homo sapiens, UniProt P27361)
[3] = biological target: Calcium/calmodulin-dependent protein kinase kinase 2 (Homo sapiens, UniProt Q96RR4)
[4] = biological target: Bone morphogenetic protein receptor type-1B (Homo sapiens, UniProt O00238)
[5] = biological target: Mitogen-activated protein kinase kinase kinase 1 (Homo sapiens, UniProt Q13233)
[6] = biological target: cAMP-dependent protein kinase catalytic subunit alpha (Homo sapiens, UniProt P17612)
[7] = biological target: Mitogen-activated protein kinase 7 (Homo sapiens, UniProt Q13164)
[8] = biological target: Chromodomain-helicase-DNA-binding protein 4 (Homo sapiens, UniProt Q14839)
[9] = biological target: Macrophage-stimulating protein receptor (Homo sapiens, UniProt Q04912)
[10] = biological target: Fibroblast growth factor receptor 1 (Homo sapiens, UniProt P11362)
[11] = biological target: T1, EKC/KEOPS complex subunit TP53RK (Homo sapiens, UniProt Q96S44)
T1 sequence (Q96S44 whole entry): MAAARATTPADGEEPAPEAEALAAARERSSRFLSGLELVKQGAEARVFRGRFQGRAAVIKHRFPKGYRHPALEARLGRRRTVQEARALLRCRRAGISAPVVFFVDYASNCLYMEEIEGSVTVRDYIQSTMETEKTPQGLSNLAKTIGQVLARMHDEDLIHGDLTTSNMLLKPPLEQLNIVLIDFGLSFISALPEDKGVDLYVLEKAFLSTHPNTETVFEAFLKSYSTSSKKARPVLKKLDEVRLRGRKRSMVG

[12] = biological target: Dual specificity mitogen-activated protein kinase kinase 2 (Homo sapiens, UniProt P36507)
Ephrin type-B receptor 3 = biological target: T2, Ephrin type-B receptor 3 (Homo sapiens, UniProt P54753)
T2 sequence (P54753 whole entry): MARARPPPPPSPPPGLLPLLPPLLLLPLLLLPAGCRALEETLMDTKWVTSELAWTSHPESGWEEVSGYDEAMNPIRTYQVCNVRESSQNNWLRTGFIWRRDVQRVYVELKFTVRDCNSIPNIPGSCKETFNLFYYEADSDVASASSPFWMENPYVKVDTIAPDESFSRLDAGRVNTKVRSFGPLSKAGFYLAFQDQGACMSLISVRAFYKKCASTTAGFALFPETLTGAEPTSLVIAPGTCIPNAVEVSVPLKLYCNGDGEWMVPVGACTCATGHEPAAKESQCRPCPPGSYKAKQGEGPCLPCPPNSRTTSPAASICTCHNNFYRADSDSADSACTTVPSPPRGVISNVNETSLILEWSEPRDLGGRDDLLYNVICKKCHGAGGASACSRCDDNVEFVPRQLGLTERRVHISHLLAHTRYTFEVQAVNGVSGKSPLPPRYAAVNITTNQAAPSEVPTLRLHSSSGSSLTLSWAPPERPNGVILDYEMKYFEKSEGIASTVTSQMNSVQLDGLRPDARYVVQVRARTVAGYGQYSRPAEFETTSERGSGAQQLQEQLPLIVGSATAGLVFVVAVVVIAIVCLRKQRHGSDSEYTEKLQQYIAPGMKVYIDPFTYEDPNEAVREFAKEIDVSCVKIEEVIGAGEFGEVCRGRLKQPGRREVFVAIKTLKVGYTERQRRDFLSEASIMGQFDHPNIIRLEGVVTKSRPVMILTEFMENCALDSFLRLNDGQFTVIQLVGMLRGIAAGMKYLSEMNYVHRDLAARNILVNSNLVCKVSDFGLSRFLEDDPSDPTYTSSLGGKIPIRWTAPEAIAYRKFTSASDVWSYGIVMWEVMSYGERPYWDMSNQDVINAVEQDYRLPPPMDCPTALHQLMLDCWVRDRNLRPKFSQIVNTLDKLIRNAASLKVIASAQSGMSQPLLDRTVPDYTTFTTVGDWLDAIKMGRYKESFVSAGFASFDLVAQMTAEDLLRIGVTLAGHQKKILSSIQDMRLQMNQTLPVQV

[13] = biological target: T3, Serine/threonine-protein kinase A-Raf (Homo sapiens, UniProt P10398)
T3 sequence (P10398 whole entry): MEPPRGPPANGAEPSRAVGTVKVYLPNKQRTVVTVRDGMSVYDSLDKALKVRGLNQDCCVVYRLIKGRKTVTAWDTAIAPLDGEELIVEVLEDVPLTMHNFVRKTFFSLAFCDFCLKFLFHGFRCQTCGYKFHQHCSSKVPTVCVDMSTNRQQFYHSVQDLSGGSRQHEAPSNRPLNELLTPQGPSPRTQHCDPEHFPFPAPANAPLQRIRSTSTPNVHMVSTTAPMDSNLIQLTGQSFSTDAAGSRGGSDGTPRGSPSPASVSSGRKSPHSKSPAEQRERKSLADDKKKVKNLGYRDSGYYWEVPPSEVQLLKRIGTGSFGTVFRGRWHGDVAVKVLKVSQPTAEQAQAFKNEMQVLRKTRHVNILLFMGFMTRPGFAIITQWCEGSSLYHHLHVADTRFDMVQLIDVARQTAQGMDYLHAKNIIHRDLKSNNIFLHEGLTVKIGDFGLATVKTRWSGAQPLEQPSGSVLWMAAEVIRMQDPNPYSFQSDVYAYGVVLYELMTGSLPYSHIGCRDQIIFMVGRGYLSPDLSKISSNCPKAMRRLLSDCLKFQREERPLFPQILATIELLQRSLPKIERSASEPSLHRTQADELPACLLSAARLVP

[14] = biological target: T4, Serine/threonine-protein kinase Nek2 (Homo sapiens, UniProt P51955)
T4 sequence (P51955 whole entry): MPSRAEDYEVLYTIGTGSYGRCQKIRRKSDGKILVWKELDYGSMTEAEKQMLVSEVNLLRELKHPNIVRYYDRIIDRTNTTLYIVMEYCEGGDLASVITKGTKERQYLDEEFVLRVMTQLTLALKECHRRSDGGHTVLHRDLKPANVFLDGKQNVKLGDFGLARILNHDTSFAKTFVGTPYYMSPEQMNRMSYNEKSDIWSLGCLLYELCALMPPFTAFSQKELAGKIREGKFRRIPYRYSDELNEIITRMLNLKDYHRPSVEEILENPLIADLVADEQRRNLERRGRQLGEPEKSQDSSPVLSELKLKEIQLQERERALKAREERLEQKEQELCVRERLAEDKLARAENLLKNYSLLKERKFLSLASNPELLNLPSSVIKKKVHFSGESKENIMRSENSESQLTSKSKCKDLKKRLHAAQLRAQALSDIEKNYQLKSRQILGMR
Also: in the data inactive means no Kd found up to 30 µM.

Chain of Mitogen-activated protein kinase 7 (Q13164 whole entry): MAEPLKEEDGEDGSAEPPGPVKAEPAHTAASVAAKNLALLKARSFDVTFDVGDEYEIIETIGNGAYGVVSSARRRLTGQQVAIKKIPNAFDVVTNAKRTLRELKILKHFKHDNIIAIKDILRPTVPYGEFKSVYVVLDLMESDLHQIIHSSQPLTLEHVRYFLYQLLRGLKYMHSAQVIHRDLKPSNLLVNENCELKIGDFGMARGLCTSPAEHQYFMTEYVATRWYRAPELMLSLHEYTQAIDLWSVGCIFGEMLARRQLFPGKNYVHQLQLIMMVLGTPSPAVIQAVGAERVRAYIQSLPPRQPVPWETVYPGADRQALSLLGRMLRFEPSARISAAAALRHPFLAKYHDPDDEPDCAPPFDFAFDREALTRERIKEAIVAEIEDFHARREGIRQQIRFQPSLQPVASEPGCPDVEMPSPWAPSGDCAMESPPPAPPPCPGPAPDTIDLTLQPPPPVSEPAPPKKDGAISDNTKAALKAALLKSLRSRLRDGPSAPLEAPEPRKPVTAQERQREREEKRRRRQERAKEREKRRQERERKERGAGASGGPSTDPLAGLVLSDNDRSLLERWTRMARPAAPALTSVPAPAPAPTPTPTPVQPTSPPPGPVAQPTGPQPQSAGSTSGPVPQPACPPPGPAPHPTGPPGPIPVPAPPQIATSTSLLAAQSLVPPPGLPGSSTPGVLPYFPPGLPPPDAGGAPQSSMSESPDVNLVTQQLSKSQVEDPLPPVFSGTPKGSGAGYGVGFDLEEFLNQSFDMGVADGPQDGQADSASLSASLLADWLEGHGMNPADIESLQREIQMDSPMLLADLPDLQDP
Chain of Casein kinase I isoform alpha (P48729 whole entry, canonical isoform): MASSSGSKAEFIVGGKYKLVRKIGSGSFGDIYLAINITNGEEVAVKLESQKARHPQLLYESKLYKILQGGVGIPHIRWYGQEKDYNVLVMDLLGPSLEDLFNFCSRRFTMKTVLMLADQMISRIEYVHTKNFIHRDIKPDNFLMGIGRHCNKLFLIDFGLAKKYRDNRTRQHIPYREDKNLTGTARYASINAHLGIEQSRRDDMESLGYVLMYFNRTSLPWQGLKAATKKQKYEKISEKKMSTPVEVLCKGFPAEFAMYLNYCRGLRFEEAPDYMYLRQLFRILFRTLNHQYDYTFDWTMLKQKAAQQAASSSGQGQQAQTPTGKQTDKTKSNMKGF
Chain of Macrophage-stimulating protein receptor (Q04912 25-304 limits assumed): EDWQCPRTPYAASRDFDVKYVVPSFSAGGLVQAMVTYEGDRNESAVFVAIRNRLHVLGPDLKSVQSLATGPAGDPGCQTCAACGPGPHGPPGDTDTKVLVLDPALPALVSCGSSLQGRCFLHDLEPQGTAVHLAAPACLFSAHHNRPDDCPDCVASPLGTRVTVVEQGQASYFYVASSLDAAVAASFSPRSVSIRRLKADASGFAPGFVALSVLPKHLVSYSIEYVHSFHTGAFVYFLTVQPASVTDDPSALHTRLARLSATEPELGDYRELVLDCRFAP
Chain of Macrophage-stimulating protein receptor (Q04912 310-1400 limits assumed): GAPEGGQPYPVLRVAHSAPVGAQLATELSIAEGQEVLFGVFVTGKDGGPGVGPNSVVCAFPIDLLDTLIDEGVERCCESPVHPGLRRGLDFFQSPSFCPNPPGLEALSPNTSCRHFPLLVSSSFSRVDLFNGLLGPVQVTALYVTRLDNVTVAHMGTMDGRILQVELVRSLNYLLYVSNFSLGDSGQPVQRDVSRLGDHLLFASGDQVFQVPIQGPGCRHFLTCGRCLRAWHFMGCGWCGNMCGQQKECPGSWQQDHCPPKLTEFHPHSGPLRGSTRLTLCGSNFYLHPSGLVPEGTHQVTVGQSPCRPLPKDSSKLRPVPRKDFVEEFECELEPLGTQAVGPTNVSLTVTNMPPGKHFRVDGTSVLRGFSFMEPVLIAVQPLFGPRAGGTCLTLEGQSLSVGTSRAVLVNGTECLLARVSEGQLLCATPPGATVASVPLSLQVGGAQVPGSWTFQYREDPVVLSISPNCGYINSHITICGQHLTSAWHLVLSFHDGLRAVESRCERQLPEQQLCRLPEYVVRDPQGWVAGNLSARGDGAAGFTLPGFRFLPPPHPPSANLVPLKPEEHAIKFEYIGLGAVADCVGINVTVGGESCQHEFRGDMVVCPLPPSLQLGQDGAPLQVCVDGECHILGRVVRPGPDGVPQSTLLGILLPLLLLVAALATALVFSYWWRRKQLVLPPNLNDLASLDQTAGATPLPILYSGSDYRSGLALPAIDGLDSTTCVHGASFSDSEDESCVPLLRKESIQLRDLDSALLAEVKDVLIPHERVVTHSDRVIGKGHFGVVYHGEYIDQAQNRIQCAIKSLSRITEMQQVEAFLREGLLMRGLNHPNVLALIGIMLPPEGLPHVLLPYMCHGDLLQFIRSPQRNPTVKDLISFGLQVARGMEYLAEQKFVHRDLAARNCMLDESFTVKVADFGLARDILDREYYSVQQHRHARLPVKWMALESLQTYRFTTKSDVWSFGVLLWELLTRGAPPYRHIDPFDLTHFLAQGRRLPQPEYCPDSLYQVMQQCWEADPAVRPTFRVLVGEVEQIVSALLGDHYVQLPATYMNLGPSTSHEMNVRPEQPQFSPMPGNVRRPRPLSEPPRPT
Chain of Bone morphogenetic protein receptor type-1B (O00238 whole entry): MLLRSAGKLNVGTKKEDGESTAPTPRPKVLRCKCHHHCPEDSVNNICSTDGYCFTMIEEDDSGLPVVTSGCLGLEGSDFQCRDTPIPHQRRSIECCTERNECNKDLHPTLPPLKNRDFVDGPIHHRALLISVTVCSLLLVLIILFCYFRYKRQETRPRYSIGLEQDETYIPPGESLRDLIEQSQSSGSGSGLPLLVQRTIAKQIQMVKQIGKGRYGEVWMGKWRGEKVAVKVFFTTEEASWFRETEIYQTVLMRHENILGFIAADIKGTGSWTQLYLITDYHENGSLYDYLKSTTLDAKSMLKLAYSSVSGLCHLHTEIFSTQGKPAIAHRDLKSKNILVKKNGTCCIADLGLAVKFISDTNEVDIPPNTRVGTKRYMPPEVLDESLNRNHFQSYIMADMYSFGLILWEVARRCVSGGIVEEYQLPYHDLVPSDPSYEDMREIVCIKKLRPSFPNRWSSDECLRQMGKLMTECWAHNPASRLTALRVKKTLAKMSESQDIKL
Chain of Calcium/calmodulin-dependent protein kinase kinase 2 (Q96RR4 whole entry): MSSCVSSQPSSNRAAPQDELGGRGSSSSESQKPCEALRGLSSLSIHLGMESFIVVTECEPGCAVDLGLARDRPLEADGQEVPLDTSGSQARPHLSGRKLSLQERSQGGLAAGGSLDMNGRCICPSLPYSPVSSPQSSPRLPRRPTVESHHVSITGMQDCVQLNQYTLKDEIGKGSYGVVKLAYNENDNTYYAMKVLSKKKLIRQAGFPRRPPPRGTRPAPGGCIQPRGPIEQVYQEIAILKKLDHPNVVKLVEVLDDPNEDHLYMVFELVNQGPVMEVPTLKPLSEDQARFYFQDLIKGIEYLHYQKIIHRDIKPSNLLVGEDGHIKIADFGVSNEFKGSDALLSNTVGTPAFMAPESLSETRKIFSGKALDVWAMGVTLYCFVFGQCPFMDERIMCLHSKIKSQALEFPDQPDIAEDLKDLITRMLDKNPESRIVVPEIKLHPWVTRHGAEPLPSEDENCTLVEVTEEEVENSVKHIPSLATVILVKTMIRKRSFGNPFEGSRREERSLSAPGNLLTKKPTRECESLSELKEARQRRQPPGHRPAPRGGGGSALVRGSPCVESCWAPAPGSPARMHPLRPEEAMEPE
Chain of Dual specificity mitogen-activated protein kinase kinase 2 (P36507 whole entry): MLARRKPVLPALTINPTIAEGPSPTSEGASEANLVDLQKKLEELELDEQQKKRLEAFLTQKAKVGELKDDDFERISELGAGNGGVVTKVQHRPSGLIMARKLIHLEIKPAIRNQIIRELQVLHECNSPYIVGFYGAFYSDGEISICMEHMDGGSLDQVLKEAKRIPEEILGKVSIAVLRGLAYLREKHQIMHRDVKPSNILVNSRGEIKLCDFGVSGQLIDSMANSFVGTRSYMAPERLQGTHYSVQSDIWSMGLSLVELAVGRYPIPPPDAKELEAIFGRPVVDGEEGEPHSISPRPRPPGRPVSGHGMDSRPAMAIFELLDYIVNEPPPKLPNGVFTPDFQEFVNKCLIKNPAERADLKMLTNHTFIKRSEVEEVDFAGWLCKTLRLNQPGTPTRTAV
Chain of Fibroblast growth factor receptor 1 (P11362 whole entry): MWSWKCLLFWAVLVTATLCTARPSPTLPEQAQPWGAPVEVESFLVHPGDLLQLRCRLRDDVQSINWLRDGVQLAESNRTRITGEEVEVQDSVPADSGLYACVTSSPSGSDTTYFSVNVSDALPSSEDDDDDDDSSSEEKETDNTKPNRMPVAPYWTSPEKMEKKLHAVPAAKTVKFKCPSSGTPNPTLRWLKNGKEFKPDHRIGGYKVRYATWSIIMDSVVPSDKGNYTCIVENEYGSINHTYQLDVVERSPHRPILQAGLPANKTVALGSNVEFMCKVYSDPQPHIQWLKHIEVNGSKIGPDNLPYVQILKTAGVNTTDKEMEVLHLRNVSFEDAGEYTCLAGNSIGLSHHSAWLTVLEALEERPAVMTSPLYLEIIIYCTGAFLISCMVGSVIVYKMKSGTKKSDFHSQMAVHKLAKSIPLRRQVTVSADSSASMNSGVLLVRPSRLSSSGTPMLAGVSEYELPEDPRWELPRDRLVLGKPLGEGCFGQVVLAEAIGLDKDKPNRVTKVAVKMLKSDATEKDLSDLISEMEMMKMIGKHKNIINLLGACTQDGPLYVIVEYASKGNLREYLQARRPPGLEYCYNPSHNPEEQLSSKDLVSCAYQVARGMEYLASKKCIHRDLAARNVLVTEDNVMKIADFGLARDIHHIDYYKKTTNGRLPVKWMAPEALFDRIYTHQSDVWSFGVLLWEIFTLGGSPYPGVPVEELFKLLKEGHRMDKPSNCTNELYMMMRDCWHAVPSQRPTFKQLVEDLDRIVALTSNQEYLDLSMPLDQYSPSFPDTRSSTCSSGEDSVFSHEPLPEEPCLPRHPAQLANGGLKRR

| SMILES | Kd [1] | Kd [2] | Kd [3] | Kd [4] | Kd [5] | Kd [6] | Kd [7] | Kd [8] | Kd [9] | Kd [10] | Kd [11] | Kd [12] | Kd (Ephrin type-B receptor 3) | Kd [13] | Kd [14] |
| --- | --- | --- | --- | --- | --- | --- | --- | --- | --- | --- | --- | --- | --- | --- | --- |
| CO[C@H]1C[C@@H]2CC[C@@H](C)[C@@](O)(O2)C(=O)C(=O)N2CCCC[C@H]2C(=O)O[C@H]([C@H](C)C[C@@H]2CC[C@@H](OCCO)[C@H](OC)C2)CC(=O)[C@H](C)/C=C(\C)[C@@H](O)[C@@H](OC)C(=O)[C@H](C)C[C@H](C)/C=C/C=C/C=C/1C [EVEROLIMUS] | > 30 µM (inactive) | > 30 µM (inactive) | > 30 µM (inactive) | > 30 µM (inactive) | > 30 µM (inactive) | > 30 µM (inactive) | > 30 µM (inactive) | > 30 µM (inactive) | > 30 µM (inactive) | > 30 µM (inactive) | > 30 µM (inactive) | > 30 µM (inactive) | > 30 µM (inactive) | > 30 µM (inactive) | > 30 µM (inactive) |
| CCN1CCN(Cc2ccc(-c3cc4c(N[C@H](C)c5ccccc5)ncnc4[nH]3)cc2)CC1 [AEE-788] | > 30 µM (inactive) | > 30 µM (inactive) | > 30 µM (inactive) | > 30 µM (inactive) | > 30 µM (inactive) | > 30 µM (inactive) | > 30 µM (inactive) | > 30 µM (inactive) | > 30 µM (inactive) | > 30 µM (inactive) | > 30 µM (inactive) | > 30 µM (inactive) | > 30 µM (inactive) | > 30 µM (inactive) | > 30 µM (inactive) |
| O=C(O)[C@]1(Cc2cccc(Nc3nccs3)n2)CC[C@@H](Oc2cccc(Cl)c2F)CC1 [MK-5108] | > 30 µM (inactive) | > 30 µM (inactive) | > 30 µM (inactive) | > 30 µM (inactive) | > 30 µM (inactive) | > 30 µM (inactive) | > 30 µM (inactive) | > 30 µM (inactive) | > 30 µM (inactive) | > 30 µM (inactive) | > 30 µM (inactive) | > 30 µM (inactive) | > 30 µM (inactive) | > 30 µM (inactive) | > 30 µM (inactive) |
| O=C(Nc1ccc(-c2ccnc(Nc3ccc(N4CCOCC4)cc3)n2)cc1)C1CCCN1 (stereo not given) [XL-019] | > 30 µM (inactive) | > 30 µM (inactive) | > 30 µM (inactive) | > 30 µM (inactive) | > 30 µM (inactive) | > 30 µM (inactive) | > 30 µM (inactive) | > 30 µM (inactive) | > 30 µM (inactive) | > 30 µM (inactive) | > 30 µM (inactive) | > 30 µM (inactive) | > 30 µM (inactive) | > 30 µM (inactive) | > 30 µM (inactive) |
| O=C(c1ccc(F)c(F)c1Nc1ccc(I)cc1F)N1CC(O)([C@@H]2CCCCN2)C1 [COBIMETINIB] | > 30 µM (inactive) | > 30 µM (inactive) | > 30 µM (inactive) | > 30 µM (inactive) | > 30 µM (inactive) | > 30 µM (inactive) | > 30 µM (inactive) | > 30 µM (inactive) | > 30 µM (inactive) | > 30 µM (inactive) | > 30 µM (inactive) | 0.022 µM (active) | > 30 µM (inactive) | > 30 µM (inactive) | > 30 µM (inactive) |
| C[C@@H]1CN(Cc2ccc(F)cc2)[C@@H](C)CN1C(=O)c1cc2c(C(=O)C(=O)N(C)C)cn(C)c2cc1Cl [TALMAPIMOD] | > 30 µM (inactive) | > 30 µM (inactive) | > 30 µM (inactive) | > 30 µM (inactive) | > 30 µM (inactive) | > 30 µM (inactive) | > 30 µM (inactive) | > 30 µM (inactive) | > 30 µM (inactive) | > 30 µM (inactive) | > 30 µM (inactive) | > 30 µM (inactive) | > 30 µM (inactive) | > 30 µM (inactive) | > 30 µM (inactive) |
| Cc1cc(-c2cc(O)ccc2Cl)cc2nnc(Nc3ccc(OCCN4CCCC4)cc3)nc12 | > 30 µM (inactive) | > 30 µM (inactive) | > 30 µM (inactive) | > 30 µM (inactive) | > 30 µM (inactive) | > 30 µM (inactive) | > 30 µM (inactive) | > 30 µM (inactive) | > 30 µM (inactive) | > 30 µM (inactive) | > 30 µM (inactive) | > 30 µM (inactive) | 0.002 µM (active) | > 30 µM (inactive) | > 30 µM (inactive) |
| Cc1cc([C@@H](C)Nc2ccccc2C(=O)O)c2nc(N3CCOCC3)cc(=O)n2c1 [AZD-6482] | > 30 µM (inactive) | > 30 µM (inactive) | > 30 µM (inactive) | > 30 µM (inactive) | > 30 µM (inactive) | > 30 µM (inactive) | > 30 µM (inactive) | > 30 µM (inactive) | > 30 µM (inactive) | > 30 µM (inactive) | > 30 µM (inactive) | > 30 µM (inactive) | > 30 µM (inactive) | > 30 µM (inactive) | > 30 µM (inactive) |
